Target: T1, CXCR7 (Homo sapiens, UniProt P25106)
T1 construct: expressed in transfected cells; host or cells: CHO cells (CHO-CXCR7), transgenes maintained with Hygromycin B and G418
Test: CXCR7 β-arrestin recruitment assay in CHO-CXCR7 cells (ProLink/EA β-galactosidase complementation), induced by human SDF-1a
Type: cell-based
Conditions: assay buffer, SDF-1a at EC50 concentration
Method: CXCR7 is fused in frame with a small enzyme donor fragment ProLink and co-expressed in CHO cells stably expressing a fusion protein of β-arrestin and the larger, N-terminal deletion mutant of β-galactosidase (called enzyme acceptor or EA). Activation of the CXCR7 stimulates binding of β-arrestin to the ProLink-tagged CXCR7 and forces complementation of the two enzyme fragments, resulting in the formation of an active β-galactosidase enzyme. The β-galactosidase enzyme activity is measured with a substrate that generates fluorescence.
CHO-CXCR7 cells (0.22×10^6/mL) were cultured in growth medium (Ham's F-12 medium with 10% fetal bovine serum (FBS)), Hygromycin B (200 ug/mL) and G418 (250 ug/mL) were used to maintain the transgenes. The day before the assay, the cells were detached from culture dishes with 0.25% trypsin-EDTA (Corning, Catalog No. 25-053-CI), plated into 96 well plate (2.2×10^5 cells/mL, 100 μL/well) and incubated overnight at 37° C. with 5% CO2. On the day of the assay, cell culture medium was removed and 100 uL of assay buffer (PBS or FBS) was added to each well. 1 μL of compound that were serially diluted in DMSO was added to each well. 5 μL of human SDF-la (Pepro Tech, Catalog No. 300-28A, at EC50 concentration pre-determined on the same day) was then added and mixed to induce CXCR7-mediated β-arrestin recruitment. The plates were incubated for 1.5 hours at 37° C. The assay buffer was removed, 100 μL substrate solution was added and the reaction was carried out at 37° C. for 30 minutes. The substrate solution was prepared by mixing 100 mL Phosphate Buffer (1M, Sigma, Catalog No. P3619-1GA), 100 mL 10% Triton X 100 (Sigma, Catalog No. T8787.), 5 mL MgCl2 (1M, Sigma, Catalog No. M1028), 1.5 mL, β-mercaptoethanol (Gibco, Catalog No. 21985-023.). 3-carboxyumbelliferyl β-D-galactopyranoside (ThermoFisher Scientific, Catalo No. F2905) was added at 0.4 mM right before use. The reaction was then stopped by adding 50 μL of Stop Solution (2.1% w/v Na2CO3) to each well. Fluorescence intensity was measured with a FlexStation 3 microplate reader (Molecular Devices) with the following setting—excitation: 360 nm, emission: 465 nm, manual Gain: 55. IC50 values were calculated with GraphPad Prism using 3 parameter nonlinear regression.

T1 sequence (P25106 whole entry): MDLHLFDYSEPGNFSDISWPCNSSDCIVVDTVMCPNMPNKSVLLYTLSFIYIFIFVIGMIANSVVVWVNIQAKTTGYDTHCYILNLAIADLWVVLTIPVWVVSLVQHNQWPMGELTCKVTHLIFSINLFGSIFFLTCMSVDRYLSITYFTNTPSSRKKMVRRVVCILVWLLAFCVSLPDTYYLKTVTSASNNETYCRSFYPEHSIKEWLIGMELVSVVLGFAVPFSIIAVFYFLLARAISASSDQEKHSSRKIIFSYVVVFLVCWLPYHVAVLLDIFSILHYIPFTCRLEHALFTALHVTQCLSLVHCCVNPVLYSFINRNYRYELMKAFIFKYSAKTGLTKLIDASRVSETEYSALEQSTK

Row | SMILES | IC50
1 | Cc1cc(C)nc(C(C)(C)NC(=O)CC2(NC(=O)c3nnc(-c4ccc(F)cc4F)o3)CN([C@H]3CC[C@](C)(O)CC3)C2)n1 [Example 1.055] | 0.1 to 1 µM
2 | CC(C)(NC(=O)CC1(NC(=O)c2ccn(-c3ccc(F)cc3F)n2)CN([C@H]2CC[C@](C)(O)CC2)C1)c1cccc(Cl)c1 [Example 1.056] | 1 to 20 µM
3 | Cn1nc(-c2ccc(F)cc2F)cc1C(=O)NC1(CC(=O)NC(C)(C)c2cccc(Cl)c2)CN([C@H]2CC[C@@](C)(O)CC2)C1 [Example 1.058] | 1 to 20 µM
4 | Cc1cc(C)nc(C(C)(C)NC(=O)CC2(NC(=O)c3nnc(-c4ccc(F)cc4F)s3)CN([C@H]3CC[C@@](C)(O)CC3)C2)n1 [Example 1.060] | 0.005 to 0.1 µM
5 | CC(C)(NC(=O)CC1(NC(=O)c2nnc(-c3ccc(F)cc3F)s2)CN([C@H]2CC[C@@](C)(O)CC2)C1)c1ccccn1 [Example 1.062] | 0.005 to 0.1 µM
6 | CC(C)(NC(=O)CC1(NC(=O)c2nnc(-c3ccc(F)cc3F)s2)CN([C@H]2CC[C@](C)(O)CC2)C1)c1ccccn1 [Example 1.063] | 0.005 to 0.1 µM
7 | CC(C)(NC(=O)CC1(NC(=O)c2nnc(-c3ccc(F)cc3F)s2)CN([C@H]2CC[C@@](C)(O)CC2)C1)c1cccc(Cl)c1 [Example 1.064] | < 0.005 µM
8 | CC(C)(NC(=O)CC1(NC(=O)c2cn(-c3ccc(F)cc3F)nn2)CN([C@H]2CC[C@@](C)(O)CC2)C1)c1cccc(Cl)c1 [Example 1.066] | 0.005 to 0.1 µM
9 | CC(C)(NC(=O)CC1(NC(=O)c2cn(-c3ccc(F)cc3F)nn2)CN([C@H]2CC[C@](C)(O)CC2)C1)c1cccc(Cl)c1 [Example 1.067] | 0.005 to 0.1 µM
10 | CC(C)(NC(=O)CC1(NC(=O)c2cnc(-c3ccc(F)cc3F)s2)CN([C@H]2CC[C@@](C)(O)CC2)C1)c1cccc(Cl)c1 [Example 1.068] | 0.005 to 0.1 µM
11 | CC(C)(NC(=O)CC1(NC(=O)c2cnc(-c3ccc(F)cc3F)s2)CN([C@H]2CC[C@](C)(O)CC2)C1)c1cccc(Cl)c1 [Example 1.069] | 0.005 to 0.1 µM
12 | Cc1cc(C)nc(C(C)(C)NC(=O)CC2(NC(=O)c3cn(-c4ccc(F)cc4F)nn3)CN(C3CCCCC3)C2)n1 [Example 1.071] | 0.005 to 0.1 µM
13 | CC(C)(NC(=O)CC1(NC(=O)c2nnc(-c3ccc(F)cc3F)s2)CN(C2CCCCC2)C1)c1ccccn1 [Example 1.072] | < 0.005 µM
14 | CC(C)(NC(=O)CC1(NC(=O)c2nnc(-c3ccc(F)cc3F)s2)CN(C2CCCCC2)C1)c1cccc(Cl)c1 [Example 1.073] | < 0.005 µM
15 | Cc1cc(C(C)(C)NC(=O)CC2(NC(=O)c3cn(-c4ccc(F)cc4F)nn3)CN(C3CCCCC3)C2)ccn1 [Example 1.074] | 0.005 to 0.1 µM
16 | CC(C)CN1CC(CC(=O)NC(C)(C)c2ccnc3[nH]ccc23)(NC(=O)c2cc(-c3ccc(F)cc3F)on2)C1 [Example 1.077] | < 0.005 µM

Row | SMILES | IC50
17 | CC(C)(NC(=O)CC1(NC(=O)c2noc(-c3ccc(F)cc3F)n2)CN([C@H]2CC[C@](C)(O)CC2)C1)c1ccccc1 [Example 1.078] | 0.1 to 1 µM
18 | CC(C)(NC(=O)CC1(NC(=O)c2cc(-c3ccc(F)cc3F)on2)CN([C@H]2CC[C@@](C)(O)CC2)C1)c1cc(Cl)ccc1Cl [Example 1.085] | < 0.005 µM
19 | CC(C)(NC(=O)CC1(NC(=O)c2cc(-c3ccc(F)cc3F)on2)CN([C@H]2CC[C@@](C)(O)CC2)C1)c1cc(Cl)cc(Cl)c1 [Example 1.086] | < 0.005 µM
20 | CC(C)(NC(=O)CC1(NC(=O)c2cc(-c3ccc(F)cc3F)on2)CN([C@H]2CC[C@](C)(O)CC2)C1)c1cc(Cl)ccc1Cl [Example 1.088] | < 0.005 µM
21 | Cc1cc(Cl)cc(C(C)(C)NC(=O)CC2(NC(=O)c3cc(-c4ccc(F)cc4F)on3)CN([C@H]3CC[C@](C)(O)CC3)C2)c1 [Example 1.090] | < 0.005 µM
22 | CC(C)(NC(=O)CC1(NC(=O)c2cc(-c3ccc(F)cc3)on2)CN([C@H]2CC[C@](C)(O)CC2)C1)c1ccccc1 [Example 1.091] | 0.005 to 0.1 µM
23 | CC(C)(NC(=O)CC1(NC(=O)c2cc(-c3ccc(F)cc3F)on2)CN(C2CCC3(CC2)COC3)C1)c1cc(Cl)cc(Cl)c1 [Example 1.092] | 0.005 to 0.1 µM
24 | CC(C)CN1CC(CC(=O)NC(C)(C)c2cc(Cl)cc(Cl)c2)(NC(=O)c2cc(-c3ccc(F)cc3F)on2)C1 [Example 1.093] | 0.005 to 0.1 µM
25 | CC(C)(NC(=O)CC1(NC(=O)c2cc(-c3ccc(F)cc3F)on2)CN(C2CCCC2)C1)c1ccccn1 [Example 1.094] | 0.005 to 0.1 µM
26 | CC(C)(NC(=O)CC1(NC(=O)c2cc(-c3ccc(F)cc3F)on2)CN(C2CCOCC2)C1)c1cccc(Cl)c1 [Example 1.095] | 0.005 to 0.1 µM
27 | CC(C)(F)CN1CC(CC(=O)NC(C)(C)c2cccc(Cl)c2)(NC(=O)c2cc(-c3ccc(F)cc3F)on2)C1 [Example 1.096] | 0.1 to 1 µM
28 | C[C@]1(O)CC[C@@H](N2CC(CC(=O)NCc3ccccn3)(NC(=O)c3cc(-c4ccc(F)cc4F)on3)C2)CC1 [Example 1.098] | 1 to 20 µM
29 | C[C@]1(O)CC[C@H](N2CC(CC(=O)NCc3ccccn3)(NC(=O)c3cc(-c4ccc(F)cc4F)on3)C2)CC1 [Example 1.099] | 1 to 20 µM
30 | C[C@]1(O)CC[C@H](N2CC(CC(=O)NCc3cccc4[nH]ccc34)(NC(=O)c3cc(-c4ccc(F)cc4F)on3)C2)CC1 [Example 1.100] | < 0.005 µM
31 | CC(C)(NC(=O)CC1(NC(=O)c2cc(-c3ccc(F)cc3F)on2)CN([C@H]2CC[C@](C)(O)CC2)C1)c1ccnc2[nH]ccc12 [Example 1.101] | 0.005 to 0.1 µM
32 | CC(C)(NC(=O)CC1(NC(=O)c2cc(-c3ccc(F)cc3F)on2)CN(C2CCC3(CCOCC3)CC2)C1)c1ccccn1 [Example 1.102] | 0.1 to 1 µM

Second part, the compound after the results:

Row | IC50 | SMILES
33 | 1 to 20 µM | Cc1cc(C)nc(C(C)(C)NC(=O)CC2(NC(=O)c3cc(-c4ccc(F)cc4F)n[nH]3)CN([C@H]3CC[C@@](C)(O)CC3)C2)n1 [Example 1.052]
34 | 1 to 20 µM | CC(C)(NC(=O)CC1(NC(=O)c2cc(-c3ccc(F)cc3F)n[nH]2)CN([C@H]2CC[C@@](C)(O)CC2)C1)c1cccc(Cl)c1 [Example 1.053]
35 | 1 to 20 µM | CC(C)(NC(=O)CC1(NC(=O)c2cc(-c3ccc(F)cc3F)n[nH]2)CN([C@H]2CC[C@](C)(O)CC2)C1)c1cccc(Cl)c1 [Example 1.054]
36 | 0.1 to 1 µM | Cc1cc(C)nc(C(C)(C)NC(=O)CC2(NC(=O)c3nnc(-c4ccc(F)cc4F)o3)CN([C@H]3CC[C@@](C)(O)CC3)C2)n1 [Example 1.057]
37 | 1 to 20 µM | Cn1nc(-c2ccc(F)cc2F)cc1C(=O)NC1(CC(=O)NC(C)(C)c2cccc(Cl)c2)CN([C@H]2CC[C@](C)(O)CC2)C1 [Example 1.059]
38 | < 0.005 µM | Cc1cc(C)nc(C(C)(C)NC(=O)CC2(NC(=O)c3nnc(-c4ccc(F)cc4F)s3)CN([C@H]3CC[C@](C)(O)CC3)C2)n1 [Example 1.061]
39 | < 0.005 µM | Cc1cc(C)nc(C(C)(C)NC(=O)CC2(NC(=O)c3nnc(-c4ccc(F)cc4F)s3)CN(C3CCCCC3)C2)n1 [Example 1.070]
40 | 0.005 to 0.1 µM | CC(C)(NC(=O)CC1(NC(=O)c2cn(-c3ccc(F)cc3F)nn2)CN(C2CCCCC2)C1)c1ccccn1 [Example 1.075]
41 | 0.005 to 0.1 µM | CC(C)(NC(=O)CC1(NC(=O)c2cn(-c3ccc(F)cc3F)nn2)CN(C2CCCCC2)C1)c1cccc(Cl)c1 [Example 1.076]
42 | 0.005 to 0.1 µM | Cc1cc(C(C)(C)NC(=O)CC2(NC(=O)c3cc(-c4ccc(F)cc4F)on3)CN([C@H]3CC[C@](C)(O)CC3)C2)nc(C)n1 [Example 1.079]
43 | 0.005 to 0.1 µM | CC(C)(NC(=O)CC1(NC(=O)c2cn(-c3ccc(F)cc3F)nn2)CN([C@H]2CC[C@](C)(O)CC2)C1)c1ccccc1 [Example 1.081]
44 | < 0.005 µM | CC(C)(NC(=O)CC1(NC(=O)c2cc(-c3ccc(F)cc3F)on2)CN(C2CCCCC2)C1)c1ccnc2[nH]ccc12 [Example 1.082]
45 | < 0.005 µM | Cc1cc(Cl)cc(C(C)(C)NC(=O)CC2(NC(=O)c3cc(-c4ccc(F)cc4F)on3)CN([C@H]3CC[C@@](C)(O)CC3)C2)c1 [Example 1.083]
46 | 0.1 to 1 µM | CC(C)(NC(=O)CC1(NC(=O)c2cn(-c3ccc(F)cc3)nn2)CN([C@H]2CC[C@](C)(O)CC2)C1)c1ccccc1 [Example 1.084]
47 | 1 to 20 µM | CC(C)(NC(=O)CC1(NC(=O)c2cc(-c3ccc(F)cc3F)on2)CN([C@H]2CC[C@](C)(O)CC2)C1)c1cccc2[nH]ncc12 [Example 1.087]
48 | 0.005 to 0.1 µM | CC(C)(NC(=O)CC1(NC(=O)c2cc(-c3ccc(F)cc3)on2)CN([C@H]2CC[C@@](C)(O)CC2)C1)c1ccccc1 [Example 1.089]
49 | 0.005 to 0.1 µM | CC(C)(NC(=O)CC1(NC(=O)c2cc(-c3ccc(F)cc3F)on2)CN([C@H]2CC[C@](C)(O)CC2)C1)c1c[nH]c2ncccc12 [Example 1.097]

Source: patent publication US12448373B2, “Azetidinyl-acetamides as CXCR7 inhibitors” (CHEMOCENTRYX, INC., priority 2021, dated 2025)
